Measured values taken from patent US20200385371A1 (Propellon Therapeutics Inc., priority 2017, published 2020).

Tests used:
WDR5 [1] = target: T1, WDR5 (Homo sapiens, UniProt P61964); experiment: Surface Plasmon Resonance (SPR) assay; assay type: binding; design: Full length WDR5 with an N-terminal His tag and C-terminal AviTag; His tag (N); made in house; host or cells: E. coli; settings: read-out: SPR Kd
In short: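 Full-length biotinylated WDR5 (N-His, C-AviTag, E. coli) captured (~3000 RU) on streptavidin SA chip; Biacore T200. HBS-EP pH 7.4 plus 5% DMSO running buffer, 40 μl/min.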

WDR5 [2] = target: T1, WDR5; experiment: Fluorescence Polarization (FP) binding assay
In short: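 Displacement of fluorescein-labelled H3 (1-15) (30 nM, with 0.3 μM WDR5) or 9-Ala-FAM (20 nM, with 0.05 μM WDR5) in 80 mM sodium phosphate pH 6.5, 20 mM KCl, 0.008% Triton X-100. FP read at 485/528 nm (H3) or 480/540 nm (9-Ala-FAM); Kdisp from hyperbolic fit, mean of quadruplicates.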

MV4-11 cells = experiment: Cell proliferation assay (ATPlite); assay type: cell-based; settings: Homo sapiens, 120 h; MV4-11 cells, five days; read-out: GI MV411 EC50
In short: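 Cells seeded at 1,000/well in Alpha-MEM with 10% FBS, treated with compound over a 10-point range (top 10 μM) or DMSO. Grown five days at 37° C, 5% CO2; viability by ATPlite luminescence.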

Compound | Kd (WDR5 [1]) [nM] | IC50 (WDR5 [2]) [nM] | EC50 (MV4-11 cells) [nM]
C[C@@H]1CN(c2cc(F)c(-c3cnc(N4C[C@H](C)O[C@@H](C)C4)nc3)c(F)c2NC(=O)c2c[nH]c(=O)cc2C(F)F)C[C@H](C)N1C [Example 120, 4-(Difluoromethyl)-N-(3-(2-((2S,6S)-2,6-dimethylmorpholino)pyrimidin-5-yl)-2,4-difluoro-6-((3S,5R)-3,4,5-trimethylpiperazin-1-yl)phenyl)-6-oxo-1,6-dihydropyridine-3-carboxamide] | 1.35 | 12 | 2.07
CC(C)[C@@H]1CN(c2nccc(-c3c(F)cc(N4CCN(C)[C@@H](C)C4)c(NC(=O)c4c[nH]c(=O)cc4C(F)(F)F)c3F)n2)CCO1 [Example 123, N-(6-((S)-3,4-dimethylpiperazin-1-yl)-2,4-difluoro-3-(2-((R)-2-isopropylmorpholino)pyrimidin-4-yl)phenyl)-6-oxo-4-(trifluoromethyl)-1,6-dihydropyridine-3-carboxamide] | 1.68 | 14.9 | 61.8
C[C@@H]1CN(c2ncc(-c3c(F)cc(N4C[C@@H](C)N(C)[C@@H](C)C4)c(NC(=O)c4c[nH]c(=O)cc4C(F)(F)F)c3F)cn2)CCO1 [Example 128, N-(2,4-difluoro-3-(2-((R)-2-methylmorpholino)pyrimidin-5-yl)-6-((3S,5R)-3,4,5-trimethylpiperazin-1-yl)phenyl)-6-oxo-4-(trifluoromethyl)-1,6-dihydropyridine-3-carboxamide] | 0.69 | 12.8 | 5.85
C[C@@H]1CN(c2nc(-c3c(F)cc(N4CCN(C)[C@@H](C)C4)c(NC(=O)c4c[nH]c(=O)cc4C(F)(F)F)c3F)cs2)C[C@H](C)O1 [Example 131, N-(3-(2-((2S,6R)-2,6-dimethylmorpholino)thiazol-4-yl)-6-((S)-3,4-dimethylpiperazin-1-yl)-2,4-difluorophenyl)-6-oxo-4-(trifluoromethyl)-1,6-dihydropyridine-3-carboxamide] | 5.12 | 16.6 | 208
C[C@@H]1CN(c2nc(-c3c(F)cc(N4CCN(C)[C@@H](C)C4)c(NC(=O)c4c[nH]c(=O)cc4C(F)F)c3F)cs2)C[C@H](C)O1 [Example 132, 4-(Difluoromethyl)-N-(3-(2-((2S,6R)-2,6-dimethylmorpholino)thiazol-4-yl)-6-((S)-3,4-dimethylpiperazin-1-yl)-2,4-difluorophenyl)-6-oxo-1,6-dihydropyridine-3-carboxamide] | 2.01 | 12.4 | 132
CC(C)OC(=O)N1CC=C(c2c(F)cc(N3C[C@@H](C)N(C)[C@@H](C)C3)c(NC(=O)c3c[nH]c(=O)cc3C(F)(F)F)c2F)CC1 [Example 133] | 2.62 | 12.3 | 58.5
CC(C)OC(=O)N1CC=C(c2c(F)cc(N3C[C@@H](C)N(C)[C@@H](C)C3)c(NC(=O)c3c[nH]c(=O)cc3C(F)(F)F)c2F)C1 [Example 134] | 0.87 | 11.4 | 55.8
C[C@@H]1CN(c2cc(F)c(C3=CCN(C(=O)OC4CC(F)(F)C4)CC3)c(F)c2NC(=O)c2c[nH]c(=O)cc2C(F)(F)F)C[C@H](C)N1C [Example 135, 3,3-Difluorocyclobutyl 4-(2,6-difluoro-3-(6-oxo-4-(trifluoromethyl)-1,6-dihydropyridine-3-carboxamido)-4-((3S,5R)-3,4,5-trimethylpiperazin-1-yl)phenyl)-5,6-dihydropyridine-1(2H)-carboxylate] | 2.31 | 12.5 | 67.4
C[C@@H]1CN(c2cc(F)c(C3=CCN(C(=O)OC4CC(F)(F)C4)C3)c(F)c2NC(=O)c2c[nH]c(=O)cc2C(F)(F)F)C[C@H](C)N1C [Example 136, 3,3-Difluorocyclobutyl 3-(2,6-difluoro-3-(6-oxo-4-(trifluoromethyl)-1,6-dihydropyridine-3-carboxamido)-4-((3S,5R)-3,4,5-trimethylpiperazin-1-yl)phenyl)-2,5-dihydro-1H-pyrrole-1-carboxylate] | 1.16 | 14.9 | 42
COc1cnc(N2CC=C(c3c(F)cc(N4C[C@@H](C)N(C)[C@@H](C)C4)c(NC(=O)c4c[nH]c(=O)cc4C(F)(F)F)c3F)CC2)nc1 [Example 137, N-(2,4-difluoro-3-(1-(5-methoxypyrimidin-2-yl)-1,2,3,6-tetrahydropyridin-4-yl)-6-((3S,5R)-3,4,5-trimethylpiperazin-1-yl)phenyl)-6-oxo-4-(trifluoromethyl)-1,6-dihydropyridine-3-carboxamide] | 2.57 | 17 | 75.1

Next, values leading:

Kd (WDR5 [1]) [nM] | IC50 (WDR5 [2]) [nM] | EC50 (MV4-11 cells) [nM] | Compound
0.9 | 11.7 | 20.4 | C[C@H]1CN(c2ncc(-c3c(F)cc(N4CCN(C)[C@@H](C)C4)c(NC(=O)c4c[nH]c(=O)cc4C(F)F)c3F)cn2)C[C@H](C)O1 [Example 119, 4-(Difluoromethyl)-N-(3-(2-((2S,6S)-2,6-dimethylmorpholino)pyrimidin-5-yl)-6-((S)-3,4-dimethylpiperazin-1-yl)-2,4-difluorophenyl)-6-oxo-1,6-dihydropyridine-3-carboxamide]
1.07 | 11.9 | 15.7 | CC(C)[C@H]1CN(c2ncc(-c3c(F)cc(N4CCN(C)[C@@H](C)C4)c(NC(=O)c4c[nH]c(=O)cc4C(F)F)c3F)cn2)CCO1 [Example 121, 4-(Difluoromethyl)-N-(6-((S)-3,4-dimethylpiperazin-1-yl)-2,4-difluoro-3-(2-((S)-2-isopropylmorpholino)pyrimidin-5-yl)phenyl)-6-oxo-1,6-dihydropyridine-3-carboxamide]
1.98 | 12.5 | 22.1 | CC(C)[C@H]1CN(c2ncc(-c3c(F)cc(N4C[C@@H](C)N(C)[C@@H](C)C4)c(NC(=O)c4c[nH]c(=O)cc4C(F)F)c3F)cn2)CCO1 [Example 122, N-(2,4-Difluoro-3-(2-((S)-2-isopropylmorpholino)pyrimidin-5-yl)-6-((3S,5R)-3,4,5-trimethylpiperazin-1-yl)phenyl)-4-(difluoromethyl)-6-oxo-1,6-dihydropyridine-3-carboxamide]
0.8 | 12.4 | 55.9 | CC(C)[C@@H]1CN(c2nccc(-c3c(F)cc(N4CCN(C)[C@@H](C)C4)c(NC(=O)c4c[nH]c(=O)cc4C(F)F)c3F)n2)CCO1 [Example 124, 4-(Difluoromethyl)-N-(6-((S)-3,4-dimethylpiperazin-1-yl)-2,4-difluoro-3-(2-((R)-2-isopropylmorpholino)pyrimidin-4-yl)phenyl)-6-oxo-1,6-dihydropyridine-3-carboxamide]
0.69 | 11.9 | 19.4 | C[C@@H]1CN(c2cc(F)c(-c3cnc(N4CCO[C@@H](C)C4)nc3)c(F)c2NC(=O)c2c[nH]c(=O)cc2C(F)F)C[C@H](C)N1C [Example 125, N-(2,4-difluoro-3-(2-((S)-2-methylmorpholino)pyrimidin-5-yl)-6-((3S,5R)-3,4,5-trimethylpiperazin-1-yl)phenyl)-4-(difluoromethyl)-6-oxo-1,6-dihydropyridine-3-carboxamide]
0.56 | 11.8 | 11.8 | C[C@H]1CN(c2ncc(-c3c(F)cc(N4CCN(C)[C@@H](C)C4)c(NC(=O)c4c[nH]c(=O)cc4C(F)F)c3F)cn2)CCO1 [Example 126, 4-(Difluoromethyl)-N-(6-((S)-3,4-dimethylpiperazin-1-yl)-2,4-difluoro-3-(2-((S)-2-methylmorpholino)pyrimidin-5-yl)phenyl)-6-oxo-1,6-dihydropyridine-3-carboxamide]
0.69 | 11.7 | 10.2 | C[C@@H]1CN(c2ncc(-c3c(F)cc(N4CCN(C)[C@@H](C)C4)c(NC(=O)c4c[nH]c(=O)cc4C(F)(F)F)c3F)cn2)CCO1 [Example 127, N-(6-((S)-3,4-dimethylpiperazin-1-yl)-2,4-difluoro-3-(2-((R)-2-methylmorpholino)pyrimidin-5-yl)phenyl)-6-oxo-4-(trifluoromethyl)-1,6-dihydropyridine-3-carboxamide]
0.34 | 8.79 | 13.5 | C[C@@H]1CN(c2ncc(-c3c(F)cc(N4CCN(C)[C@@H](C)C4)c(NC(=O)c4c[nH]c(=O)cc4C(F)F)c3F)cn2)CCO1 [Example 129, 4-(Difluoromethyl)-N-(6-((S)-3,4-dimethylpiperazin-1-yl)-2,4-difluoro-3-(2-((R)-2-methylmorpholino)pyrimidin-5-yl)phenyl)-6-oxo-1,6-dihydropyridine-3-carboxamide]
0.55 | 8.92 | 10.2 | C[C@@H]1CN(c2ncc(-c3c(F)cc(N4C[C@@H](C)N(C)[C@@H](C)C4)c(NC(=O)c4c[nH]c(=O)cc4C(F)F)c3F)cn2)CCO1 [Example 130, N-(2,4-difluoro-3-(2-((R)-2-methylmorpholino)pyrimidin-5-yl)-6-((3S,5R)-3,4,5-trimethylpiperazin-1-yl)phenyl)-4-(difluoromethyl)-6-oxo-1,6-dihydropyridine-3-carboxamide]
